The text below walks through data of patent US8124629B2, “Naphthylacetic acids” (Hoffmann-La Roche Inc., priority 2008, dated 2012).

For test [1], the target named is T1, human CRTH2 (Homo sapiens, UniProt Q9Y5Y4).
T1 sequence (Q9Y5Y4 1-395): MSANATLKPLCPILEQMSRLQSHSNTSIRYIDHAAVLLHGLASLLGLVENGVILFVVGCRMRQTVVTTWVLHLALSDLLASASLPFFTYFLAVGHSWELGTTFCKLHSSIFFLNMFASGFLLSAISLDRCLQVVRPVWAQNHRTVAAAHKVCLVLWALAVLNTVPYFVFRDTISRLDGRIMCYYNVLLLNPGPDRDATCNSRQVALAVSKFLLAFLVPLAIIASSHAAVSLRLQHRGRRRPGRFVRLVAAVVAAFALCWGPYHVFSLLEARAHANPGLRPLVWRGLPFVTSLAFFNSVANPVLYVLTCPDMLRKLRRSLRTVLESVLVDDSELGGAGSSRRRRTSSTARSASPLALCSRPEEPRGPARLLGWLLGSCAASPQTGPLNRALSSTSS
Briefly: Calcium Flux Assay Using Fluorometric Imaging Plate Reader (FLIPR). It counts as cell-based. Set-up: expressed in transfected cells; host or cells: CHO-K1 (previously transfected with G-alpha 16). Particulars: CHO-K1 cells with G-alpha 16 and human CRTH2; inhibition of ligand (DK-PGD2) induced Ca2+ flux; read-out: FLIPR assay IC50 (exceptions, greater than 3). The protocol: CHO-K1 cells previously transfected with G-alpha 16 were subsequently transfected with the human CRTH2 receptor and the neomycin resistance gene. Following selection in 800 μg/mL G418 (geneticin), individual clones were assayed for their receptor expression based on staining with an anti human CRTH2 IgG, followed by assaying for their response to 13,14-dihydro-15-keto Prostaglandin D2 (DK-PDG2) (ligand) in the Ca^2+Flux assay. Positive clones were then cloned by limiting dilution cloning. The transfected cells were cultured in Ham's F-12 medium supplemented with 10% fetal bovine serum, 2 mM glutamine , 100 U/mL penicillin/100 μg/mL streptomycin, 200 μg/mL hygromycin B, and 800 μg/mL G418 (geneticin). Cells were harvested with trypsin-EDTA (trypsin-ethylenediaminetetraacetic acid) and counted using ViaCount® reagent (from Guava Technologies, Inc. which contains two DNA-binding dyes that enable the reagent user to distinguish between viable and non-viable cells). The cell suspension volume was adjusted to 2.5×10^5 cells /mL with complete growth media. Aliquots of 50 μL were dispensed into BD Falcon™ 384 well black/clear microplates (from BD Biosciences, a division of Becton, Dickinson and Company) and the microplates were placed in a 37° C. CO2 incubator overnight. The following day, the microplates were used in the assay.
Loading Buffer containing dye (from the FLIPR® Calcium 3 Assay Kit from Molecular Devices, a division of MDS Analytical Technologies and MDS Inc.) was prepared by dissolving the contents of one bottle into 200 mL Hank's Balanced Salt Solution containing 20 mM HEPES (4-(2-hydroxyethyl)-1-piperazineethanesulfonic acid) and 2.5 mM probenecid. Growth media was removed from the cell plates and 25 μL of Hank's Balanced Salt Solution (HBSS) containing 20 mM HEPES, 0.05% BSA and 2.5 mM probenecid was added to each well followed by 25 μL of diluted dye using a Multidrop dispenser. The plates were then incubated for 1 hour at 37° C.
During the incubation, test compound plates were prepared by adding 90 μL of HBSS/20 mM HEPES/0.005% BSA buffer to the 2 μL of serial diluted compounds. To prepare serial diluted compounds, 20 mM stocks of compounds were dissolved in 100% DMSO. The compound dilution plate was set up as follows: well #1 received 5 μL of compound plus 10 μL of DMSO. Wells 2-10 received 10 μL of DMSO. 5 μL was mixed and transferred from well #1 into well #2. 1:3 serial dilutions were continued out 10 steps. 2 μL of diluted compound was transferred into duplicate wells of a 384 well “assay plate” and then 90 μL of buffer was added.
After incubation, both the cell and “assay plate” plates were brought to the fluorometric imaging plate reader (FLIPR®) and 20 μL of the diluted compounds were transferred to the cell plates by the FLIPR®. Plates were then incubated for 1 hour at room temperature. After the 1 hour incubation, plates were returned to the FLIPR® and 20 μL of 4.5× concentrated ligand was added to the cell plates. During the assay, fluorescence readings were taken simultaneously from all 384 wells of the cell plate every 1.5 seconds. Five readings were taken to establish a stable baseline, then 20 μL of sample was rapidly (30 μL/sec) and simultaneously added to each well of the cell plate. The fluorescence was continuously monitored before, during and after sample addition for a total elapsed time of 100 seconds. Responses (increase in peak fluorescence) in each well following agonist addition were determined. The initial fluorescence reading from each well, prior to ligand stimulation, was used as a zero baseline value for the data from that well. The responses were expressed as % inhibition of the buffer control. […]

Test [2] deals with T1, human CRTH2. Briefly: Human CRTH2 Receptor Binding Assay (whole cell, [3H]ramatroban). Set-up: expressed in transfected cells; host or cells: CHO-K1. To be noted: CHO-K1 cells expressing human CRTH2 and G-alpha16; 20 nM [3H]ramatroban; 1 hour, room temperature. The essentials: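 CHO-K1 cells stably co-expressing human CRTH2 and G-alpha16, 1.5×10^5 cells/reaction, bound 1 h at room temperature with 20 nM [3H]ramatroban in PBS, 10 mM MgCl2, 0.06% BSA. Filter-bound radioactivity counted; non-specific binding defined with 10 μM 15(R)-15-methyl PGD2. IC50 from 4-parameter fit of 7-concentration inhibition data.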

Turning to `NS(=O)(=O)c1ccc(C(=O)c2cc(CC(=O)O)cc3ccccc23)cc1` [Example 1-3, [4-(4-Sulfamoyl-benzoyl)-naphthalen-2-yl]-acetic acid], the IC50 (commonly the concentration needed to halve the response being measured) is more than 3 µM on human CRTH2 [1] and 0.336 µM at human CRTH2 [2].
With `NS(=O)(=O)c1ccc(C(=O)c2cc(CC(=O)O)cc3ccc(F)cc23)cc1` [Example 1-2, [6-Fluoro-4-(4-sulfamoyl-benzoyl)-naphthalen-2-yl]-acetic acid], the IC50 was more than 3 µM on human CRTH2 [1] and 0.0402 µM at human CRTH2 [2].
With `CS(=O)(=O)c1cccc(C(=O)c2cc(CC(=O)O)cc3cc4c(cc23)OCO4)c1` [Example 2-12, [8-(3-Methanesulfonyl-benzoyl)-naphtho[2,3-d][1,3]dioxol-6-yl]-acetic acid], the IC50 on human CRTH2 [1] was more than 3 µM; on human CRTH2 [2], 0.152 µM.
On the same counts, the results for `CS(=O)(=O)c1ccc(C(=O)c2cc(CC(=O)O)cc3cc4c(cc23)OCO4)cc1` [Example 2-7, [8-(4-Methanesulfonyl-benzoyl)-naphtho[2,3-d][1,3]dioxol-6-yl]-acetic acid] are more than 3 µM and 0.264 µM.
Taken in the same sequence, the figures for `CC(C(=O)O)c1cc(C(=O)c2ccc(S(C)(=O)=O)cc2)c2cc(F)ccc2c1` (stereo not shown) [Example 7-1, 2-[6-Fluoro-4-(4-methanesulfonyl-benzoyl)-naphthalen-2-yl]-propionic acid] were more than 3 µM and 0.0533 µM.
Taken in the same sequence, the figures for `COc1ccc2c(C(=O)c3ccc(S(C)(=O)=O)cc3)cc(CC(=O)O)cc2c1` [Example 2-9, [4-(4-Methanesulfonyl-benzoyl)-7-methoxy-naphthalen-2-yl]-acetic acid] were more than 3 µM and 0.199 µM.
Consider `CS(=O)(=O)c1cccc(C(=O)c2cc(CC(=O)O)cc3ccc(Cl)cc23)c1` [Example 2-30, [6-Chloro-4-(3-methanesulfonyl-benzoyl)-naphthalen-2-yl]-acetic acid], for which the IC50 at human CRTH2 [1] is more than 3 µM; at human CRTH2 [2] it was 0.0825 µM.
On the same counts, the results for `CS(=O)(=O)c1cccc(C(=O)c2cc(CC(=O)O)cc3ccccc23)c1` [Example 2-11, [4-(3-Methanesulfonyl-benzoyl)-naphthalen-2-yl]-acetic acid] are more than 3 µM and 0.135 µM.
